“Also recorded” adds a separate entry of the source. Ends that are not written are not given here.
What was measured:
[1] = tested on: GABAA; assay: GABAA ion channel assay; assay type: cell-based; details: FLIPR Tetra, up to 30 µM, read-out: RC50 (the source's name)
Procedure: Ion Channel Assays: Cell lines were grown, plated, and loaded with 1× loading buffer containing 1× dye and 2.5 mM freshly prepared probenecid. Assays were performed, and activity was measured using a FLIPR Tetra. Percent of activation and percent of inhibition were calculated to determine agonist and antagonist activity, respectively. […]
in complementation with EA generating a unit of active β-gal and based assay for the detection of dopamine, norepinephrine or sero-production of a chemiluminescent signal upon the addition of Path- tonin transporter activity in cells expressing these transporters. The Hunter detection reagents. kit employs a fluorescent substrate that mimics the biogenic amine neurotransmitters that are taken into the cell through these specific transporters, resulting in increased intracellular fluorescence inten-sity. […]
KINOMEscan® Assay fluorescence for improved signal/noise ratio. […]
Compounds that bind the kinase active site and directly (sterically) be monitored within a single experiment. or indirectly (allosterically) prevent kinase binding to the immobi-lized ligand, will reduce the amount of kinase captured on the solid Calcium Assay […]
kinase have no effect on the amount of kinase captured on the of changes in intracellular calcium. […] In a similar manner, dissociation con- an increase of dye fluorescence. […]

[2] = tested on: CD1-wildtype mice; assay: Mouse toxicity studies (weight, blood count, serum chemistries); assay type: in vivo; details: for alkaline phosphatase level, individual mouse: female
Procedure: Mouse Toxicity Studies: Sixty CD1-wildtype mice (1:1 male to female ratio) were obtained from Charles River and divided into 6 groups of 10, 5 females and 5 males each. Ten control mice were injected with 1X PBS. Treated mice were injected intravenously with a single dose of CTP 150 μg/Kg. Groups of 10 treated mice (5 male, 5 female) were euthanized on day 0 (immediately after injection), 1, 2, 7, and 14 post-injection using inhalational CO2. After euthanasia, the chest cavity was opened, and blood drawn via cardiac puncture for complete blood count and serum chemistries. Following the blood draw, the right atrium was nicked and the whole animal perfusion fixed using 3 mL of formalin injected into the left ventricular apex. The control group was euthanized on day 2. A complete blood count, metabolic profile, and thyroid studies were performed.

[3] = target: T1, HEK-Nav1.5 (Late, Antagonist) (Homo sapiens, UniProt Q14524); assay type: cell-based; details: CTP 0.1 to 30 µM; HEK cells; late current, ramp with 50nM ATXII; antagonist; 0.1% Pluronic F-68
T1 construct: CYL7004QB2DR (late); host or cells: HEK

[4] = tested on: seven ion channels; assay: Eurofins Ion Channel Cardiac Profiler Panel (all seven channels); assay type: cell-based, human; details: CTP 0.1 to 30 µM
[5] = target: HEK-Kv4.3/KChIP2 (Homo sapiens, UniProt Q9NS61+Q9UK17); details: CTP 0.1 to 30 µM; HEK cells; step to 40mV; 0.1% Pluronic F-68
[6] = female mice, CTP 150 μg/Kg single i.v., Day 0, recovered by Day 1
[7] = female mice, CTP 150 μg/Kg single i.v., vs control
[8] = male mice, CTP 150 μg/Kg single i.v., vs control

HEK-Kv4.3/KChIP2, sequence (Q9UK17 whole entry): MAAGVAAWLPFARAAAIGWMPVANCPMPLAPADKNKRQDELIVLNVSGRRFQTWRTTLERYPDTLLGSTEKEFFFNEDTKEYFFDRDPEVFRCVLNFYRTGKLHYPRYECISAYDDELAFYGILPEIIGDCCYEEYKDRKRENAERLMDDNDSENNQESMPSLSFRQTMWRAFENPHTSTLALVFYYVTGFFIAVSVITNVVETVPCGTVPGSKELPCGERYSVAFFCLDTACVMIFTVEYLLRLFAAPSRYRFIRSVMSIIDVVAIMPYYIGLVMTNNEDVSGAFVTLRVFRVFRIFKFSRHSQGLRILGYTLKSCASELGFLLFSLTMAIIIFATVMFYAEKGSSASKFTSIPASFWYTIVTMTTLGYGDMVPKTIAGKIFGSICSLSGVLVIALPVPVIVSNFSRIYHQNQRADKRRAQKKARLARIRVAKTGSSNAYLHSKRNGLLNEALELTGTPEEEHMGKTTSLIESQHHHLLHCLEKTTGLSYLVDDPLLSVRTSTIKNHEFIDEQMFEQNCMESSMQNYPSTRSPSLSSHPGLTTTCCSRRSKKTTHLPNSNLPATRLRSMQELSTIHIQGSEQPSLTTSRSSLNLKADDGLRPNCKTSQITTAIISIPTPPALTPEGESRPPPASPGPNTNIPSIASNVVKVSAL
HEK-Kv4.3/KChIP2, sequence (Q9NS61 whole entry partner): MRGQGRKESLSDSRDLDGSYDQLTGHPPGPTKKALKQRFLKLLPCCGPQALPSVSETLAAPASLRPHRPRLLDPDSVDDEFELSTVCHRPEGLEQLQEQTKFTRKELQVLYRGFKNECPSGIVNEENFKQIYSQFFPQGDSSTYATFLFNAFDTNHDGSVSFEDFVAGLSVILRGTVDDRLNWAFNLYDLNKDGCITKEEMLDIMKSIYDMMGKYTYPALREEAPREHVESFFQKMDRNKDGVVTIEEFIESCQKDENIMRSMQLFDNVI
T1 sequence (Q14524 whole entry): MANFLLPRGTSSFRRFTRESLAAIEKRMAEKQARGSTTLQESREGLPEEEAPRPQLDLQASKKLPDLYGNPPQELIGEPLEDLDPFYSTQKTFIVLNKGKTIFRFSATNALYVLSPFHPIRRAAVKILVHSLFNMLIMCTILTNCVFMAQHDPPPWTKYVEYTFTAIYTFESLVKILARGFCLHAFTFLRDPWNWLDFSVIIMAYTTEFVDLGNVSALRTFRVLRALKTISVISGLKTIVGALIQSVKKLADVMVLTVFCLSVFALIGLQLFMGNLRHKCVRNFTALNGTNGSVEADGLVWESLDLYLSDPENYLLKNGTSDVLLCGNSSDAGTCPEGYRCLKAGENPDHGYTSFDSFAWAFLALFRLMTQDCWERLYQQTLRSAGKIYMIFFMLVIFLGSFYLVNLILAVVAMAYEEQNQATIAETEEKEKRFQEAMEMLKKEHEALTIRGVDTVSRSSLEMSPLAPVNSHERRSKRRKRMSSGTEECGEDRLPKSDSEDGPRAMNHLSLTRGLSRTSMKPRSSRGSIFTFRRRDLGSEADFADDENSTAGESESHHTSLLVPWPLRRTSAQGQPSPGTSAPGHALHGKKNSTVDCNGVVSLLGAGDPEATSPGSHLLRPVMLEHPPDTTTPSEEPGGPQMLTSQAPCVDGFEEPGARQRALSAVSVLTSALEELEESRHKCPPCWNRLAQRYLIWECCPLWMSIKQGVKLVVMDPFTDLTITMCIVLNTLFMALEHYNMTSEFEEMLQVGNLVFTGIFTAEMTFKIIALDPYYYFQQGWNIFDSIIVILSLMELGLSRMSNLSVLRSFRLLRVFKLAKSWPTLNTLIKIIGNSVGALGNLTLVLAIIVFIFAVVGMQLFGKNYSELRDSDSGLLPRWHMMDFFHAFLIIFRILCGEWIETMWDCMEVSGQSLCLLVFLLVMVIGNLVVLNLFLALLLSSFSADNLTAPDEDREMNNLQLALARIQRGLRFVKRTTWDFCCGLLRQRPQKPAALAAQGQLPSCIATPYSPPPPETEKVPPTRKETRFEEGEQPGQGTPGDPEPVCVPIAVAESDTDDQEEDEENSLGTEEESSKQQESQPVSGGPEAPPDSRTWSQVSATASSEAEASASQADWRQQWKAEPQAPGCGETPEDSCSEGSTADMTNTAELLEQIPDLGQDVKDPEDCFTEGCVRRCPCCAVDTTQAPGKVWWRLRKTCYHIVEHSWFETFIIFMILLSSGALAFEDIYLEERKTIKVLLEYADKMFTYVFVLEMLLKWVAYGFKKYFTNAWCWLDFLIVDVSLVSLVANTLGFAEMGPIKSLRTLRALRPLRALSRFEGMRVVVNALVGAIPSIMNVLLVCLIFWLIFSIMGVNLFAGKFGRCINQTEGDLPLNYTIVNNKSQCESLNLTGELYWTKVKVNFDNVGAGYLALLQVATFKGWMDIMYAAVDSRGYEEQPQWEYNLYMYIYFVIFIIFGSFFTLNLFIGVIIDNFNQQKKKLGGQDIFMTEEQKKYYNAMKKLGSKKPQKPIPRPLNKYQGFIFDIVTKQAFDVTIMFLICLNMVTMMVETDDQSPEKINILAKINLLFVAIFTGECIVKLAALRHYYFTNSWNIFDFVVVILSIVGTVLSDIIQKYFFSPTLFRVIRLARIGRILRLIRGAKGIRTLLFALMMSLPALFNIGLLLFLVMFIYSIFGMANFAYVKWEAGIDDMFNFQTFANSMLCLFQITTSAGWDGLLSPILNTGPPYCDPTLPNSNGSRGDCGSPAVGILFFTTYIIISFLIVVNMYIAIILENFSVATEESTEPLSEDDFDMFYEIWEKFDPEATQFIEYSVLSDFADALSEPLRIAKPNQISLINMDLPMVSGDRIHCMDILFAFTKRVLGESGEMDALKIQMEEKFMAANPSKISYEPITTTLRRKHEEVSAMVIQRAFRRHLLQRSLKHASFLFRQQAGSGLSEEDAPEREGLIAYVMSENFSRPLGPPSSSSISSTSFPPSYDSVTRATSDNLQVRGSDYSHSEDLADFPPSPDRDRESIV

## APWHLSSQYSRT [CTP]
[1]; agonist (opener)
  EC50: > 30 µM
[1]; antagonist (blocker)
  IC50: > 30 µM
[2]; CTP 150 µg/Kg single dose, except borderline alkaline phosphatase increase in female mice
  toxicity signals overall: no significant toxicity signals
[2]; control vs injected mice of each sex, CTP 150 μg/Kg single i.v., two-week course
  body weight: no significant difference
[2]; female mice, any of the groups, upper limit of normal not crossed, CTP 150 μg/Kg single i.v.
  mean alkaline phosphatase level: ≤ 140 IU/L
[2]; female mice, CTP 150 μg/Kg single i.v.
  alkaline phosphatase recovery: returning to baseline by Day 2
[2]; [6]
  platelet count: decreased on Day 0; also recorded: significant decrease
  white blood cell count: decreased on Day 0; also recorded: significant decrease
[2]; female mice, CTP 150 μg/Kg single i.v., only on Day 0, recovered by Day 1
  bilirubin: significant decrease
[2]; [7]
  alanine aminotransferase: no significant difference
  alkaline phosphatase change: borderline increase in alkaline phosphatase levels in female mice on Days 0 and 1, with recovery to control levels by Day 2; also recorded: rise in alkaline phosphatase
  aspartate aminotransferase: no significant difference
  blood urea nitrogen: no significant difference
  creatinine: no significant difference
  hemoglobin: no significant difference
[2]; day 0, first of two borderline elevated mice, CTP 150 μg/Kg single i.v.
  alkaline phosphatase level, individual mouse: 151 IU/L
[2]; day 0, second of two borderline elevated mice, CTP 150 μg/Kg single i.v.
  alkaline phosphatase level, individual mouse: 166 IU/L
[2]; male mice, CTP 150 μg/Kg single i.v., normalizing at later time-points
  calcium levels: increased marginally only on Day 0
[2]; [8]
  alanine aminotransferase: no difference
  alkaline phosphatase: no difference
  aspartate aminotransferase: no difference
  blood urea nitrogen: decrease; also recorded: significantly lower on Days 0–2
  creatinine: decrease; also recorded: significantly lower on Days 0–2
  hemoglobin: no difference
  phosphorous levels: no difference
  platelet count: no difference
  total bilirubin: no difference
  white blood cell count: no difference
[3]
  Estimated IC50: N/C (Not calculable, inhibition >25% was not observed.)
[4]; seven ion channels
  IC50 values: not calculable
[4]; vs control substances
  inhibition/activation across all seven ion channels: no inhibition/activation was observed; also recorded: did not inhibit the activation of any tested
[5]
  Estimated IC50: N/C (Not calculable, inhibition >25% was not observed.)

From article PMC10818749, “Toxicity Studies of Cardiac-Targeting Peptide Reveal a Robust Safety Profile” (Pharmaceutics, 2024)
